Test results taken from PubChem BioAssay AID504313 (Emory University Molecular Libraries Screening Center, 2011).
Activity calls are given as the source filed them. How the calls were made is not given here.

target: X-box-binding protein 1 (Homo sapiens) (UniProt P17861); test: inhibitors of XBP1 reporter signal, dose response, counter-screen, cell-based (AID 504313); details: XBP1 reporter cell assay, percent of control;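 further: CHO cells carrying an XBP1 reporter stimulated with tunicamycin; potency is for inhibition of the tunicamycin-induced reporter signal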

Row | Structure (SMILES) | IC50
1 | CCOC(=O)c1c(C)[nH]c2c1-c1ccccc1C(=O)C2=O | 1.41 µM
2 | Oc1ccc(/C=N/Nc2nc(N3CCCCCC3)nc(N3CCCCCC3)n2)c(O)c1 | > 10 µM (inactive)
3 | CC(C)(C)c1ccc(C(=O)NC(=S)NNC(=O)c2cccs2)cc1 | > 10 µM (inactive)
4 | CCCCCCNC(=O)CC(c1ccccc1)c1cc(Br)ccc1O (configuration not stated) | inactive
5 | Cc1cc(C)c(S(=O)(=O)NCCn2c(C)cc3ccccc32)c(C)c1 | > 10 µM (inactive)
6 | Cc1ccc2sc(N(CCCN(C)C)C(=O)c3nc4ccccc4s3)nc2c1C | inactive
7 | COc1cccc(NC(=O)CSc2nnc(-c3cc(C)n(-c4ccccc4)c3C)o2)c1 | 0.41 µM
8 | C/C(N)=C(/C#N)C(=O)COC(=O)C1CCC(C(C)(C)C)CC1 (configuration not stated) | > 10 µM (inactive)
9 | S=C(Nc1ccccc1)Nc1ccc(OCc2ccc(Cl)cc2Cl)cc1 | 0.19 µM
10 | CC(C)Cn1c(=O)[nH]c(=O)c2c(C(F)(F)F)cc(-c3ccccc3)nc21 | > 10 µM (inactive)
11 | O=C1C(Nc2ccc(O)cc2)=C/C(=N/S(=O)(=O)c2cccs2)c2ccccc21 | 1.21 µM
12 | Cc1cc(-c2n[nH]c(=S)n2/N=C/C(Br)=C/c2ccccc2)n[nH]1 | inactive
13 | CCCCCCn1c(N2CCC(C)CC2)nc2c1c(=O)[nH]c(=O)n2C | > 10 µM (inactive)
14 | C/C(=N\OCc1cccc(C(=O)O)c1)c1ccc(Cl)cc1 | inactive
15 | Cc1cccc(NC2=C/C(=N/S(=O)(=O)c3cccs3)c3ccccc3C2=O)c1 | 1.31 µM
16 | CCN(CCO)c1ncnc2c1sc1nc(C(C)C)c3c(c12)CC(C)(C)OC3 | > 10 µM (inactive)
17 | O=C(NNC(=O)c1cccc2ccccc12)c1ccc(-c2ccccc2)cc1 | > 10 µM (inactive)
18 | CC(C)C[C@H](NC(=O)c1[nH]cnc1C(=O)N[C@@H](C)C(=O)OC(C)(C)C)C(=O)OC(C)(C)C | 2.71 µM
19 | OC(c1cccc(OCc2ccccc2)c1)c1nnc(-c2ccccc2)o1 (configuration not stated) | > 10 µM (inactive)
20 | CCCCCCCC(=O)N/N=C/c1ccc(Br)cc1 | 4.47 µM
21 | COc1ccc(-c2cc(C3CCN(Cc4cccc(C(F)(F)F)c4)CC3)[nH]n2)cc1 | inactive
22 | C/C(=N\NC(=O)COc1ccc(C(C)(C)C)cc1)c1ccc(N2CCOCC2)cc1 | inactive
23 | O=C(Nc1ccccc1)Nc1cc(OCC(F)(F)F)cc(OCC(F)(F)F)c1 | 3.95 µM
24 | Cc1ccc(NC(=O)CCl)cc1S(=O)(=O)N1CCCCCC1 | inactive
25 | Cc1ccc(NN2C(=O)C=C(c3ccc(Cl)cc3)C2=O)cc1 | inactive
26 | Cc1ccc(NC(=O)c2ccc(Nc3c([N+](=O)[O-])cc([N+](=O)[O-])cc3[N+](=O)[O-])cc2)cc1 | inactive

Row | Structure (SMILES) | IC50
27 | CC(C)NC(=O)c1ccccc1NC(=O)/C=C/c1cccc([N+](=O)[O-])c1 | > 10 µM (inactive)
28 | OCCCNc1nccc(-c2cc(Nc3cccc(Cl)c3)ncn2)n1 | 0.3 µM
29 | S=c1[nH]nc(C2CCCCC2)n1/N=C/C=C/c1ccccc1 | > 10 µM (inactive)
30 | C/C=C(\C)C(=O)OC1C(C)=C2C(C1OC(=O)CCCCC)C(C)(OC(C)=O)CC(OC(=O)CCC)C1(O)C2OC(=O)C1(C)O (configuration not stated) | 5.03 µM
31 | Cc1ccc2c(C)nc(Nc3nc(CSc4nc5ccccc5[nH]4)cc(=O)[nH]3)nc2c1 | inactive
32 | CCCCCn1c(=O)c(C(=O)Nc2nc3ccccc3[nH]2)c(O)c2ccccc21 | 4.25 µM
33 | COc1ccc(C(=O)Nc2nnc(-c3ccco3)s2)cc1 | inactive
34 | Cc1cccc(C(=O)c2cnc3ccccc3c2-c2ccccc2)c1 | > 10 µM (inactive)
35 | O=Nc1ccc(O)c2ncccc12 | 5.08 µM
36 | CCCCCCCn1c(=O)c(C(=O)Nc2cnccn2)c(O)c2ccccc21 | 2.1 µM
37 | CCOc1cc(/C=N/NC(=O)COc2cccc(C)c2)ccc1OC(=O)c1cccs1 | > 10 µM (inactive)
38 | O=C(Nc1ccc(C(O)(C(F)(F)F)C(F)(F)F)cc1)c1ccc(Cl)c([N+](=O)[O-])c1 | inactive
39 | O=C1C(N2CCOCC2)=C(n2nnc3ccccc32)C(=O)c2ccccc21 | inactive
40 | CCOC(=O)c1c(CN2CCOCC2)n(-c2ccccc2)c2cc(Br)c(O)cc12 | > 10 µM (inactive)
41 | CN(C)CCCn1c(SCC(=O)Nc2nc(-c3cccc(Br)c3)cs2)nc2ccccc2c1=O | > 10 µM (inactive)
42 | Cc1ccc(-c2cc3c(nn2)-c2ccccc2C3=O)cc1 | inactive
43 | C#CC(=O)N(c1cccc(OC)c1)C(C(=O)NC1CCCC1)c1cccs1 (configuration not stated) | inactive
44 | O=C(CCl)N(c1ccc(Cl)cc1)c1c[nH]c2ccccc12 | inactive
45 | O=C(N=Nc1c(O)n(Cc2ccccc2)c2ccccc12)c1cc2ccccc2cc1O | inactive
46 | CCCCNS(=O)(=O)c1ccc2nc(-c3cccnc3)cc(C(=O)NC3CCCC3)c2c1 | > 10 µM (inactive)
47 | CCc1ccc(NP(=O)(Oc2ccccc2F)Oc2ccccc2F)cc1 | > 10 µM (inactive)
48 | C=CCOC(=O)C1=C(C)NC(C)=C(C(=O)OCC=C)C1/C=C/c1ccccc1 | inactive
49 | CCCCn1c(=O)[nH]c(=O)c2c1nc(-c1ccc(OCCC)c(OCC)c1)n2C | > 10 µM (inactive)
50 | CC1=C/C(=N\OS(=O)(=O)c2ccccc2)C(C)=CC1=O | 2.69 µM
51 | O=c1cc(-c2c(F)c(F)c(F)c(F)c2F)oc2c(F)c(F)c(F)c(F)c12 | 4.69 µM
52 | O=C(N/N=C/c1cccc(F)c1)c1c(O)c2ccccc2[nH]c1=O | inactive

Row | Structure (SMILES) | IC50
53 | CC1=CCC[C@@H]2[C@@](C)(CC/C(C)=C/C(=O)O)[C@H](C)CC[C@@]12C | > 10 µM (inactive)
54 | CCCNC(=O)c1nnsc1S(=O)c1ccc(Cl)cc1 (configuration not stated) | inactive
55 | O=S(=O)(Nc1ccccc1)c1ccc(Oc2ncc(C(F)(F)F)cc2Cl)cc1 | 2.15 µM
56 | N#Cc1c(N)nc(SCC(=O)C23CC4CC(CC(C4)C2)C3)c(C#N)c1-c1ccc(Cl)cc1 | > 10 µM (inactive)
57 | O=C(NC(c1ccccc1)c1cc(Cl)c2cccnc2c1O)c1cccnc1 (configuration not stated) | inactive
58 | Cc1nn(Cc2c(Cl)cccc2Cl)c(C)c1NC(=O)c1cc(C(C)C)on1 | > 10 µM (inactive)
59 | CC(=O)N(C1=C(Cl)C(=O)c2ccccc2C1=O)C1CCCCC1 | inactive
60 | COc1cc(/C=C2\COC/C(=C\c3cc(OC)c(OC)c(OC)c3)C2=O)cc(OC)c1OC | 1.39 µM
61 | CC1CN(S(=O)(=O)c2ccc(C(=O)Nc3nc(-c4cc5ccccc5o4)cs3)cc2)CC(C)O1 (configuration not stated) | > 10 µM (inactive)
62 | COc1ccc(-c2cnc(OC(C)(C)C)nc2OC(C)(C)C)cc1OC | inactive
63 | Clc1ccc2[nH]c(-c3ccccc3)cc2c1 | > 10 µM (inactive)
64 | O=C(OCn1ncc(Cl)c(Cl)c1=O)c1ccc(F)cc1 | 3.7 µM
65 | COC(=O)[C@]12OC[C@]34C([C@@H](O)[C@@H]1O)[C@]1(C)CC(=O)C(O)=C(C)[C@@H]1C[C@H]3OC(=O)[C@H](O)[C@@H]24 (some centres not stated) | inactive
66 | FC(F)(F)c1ccc(/C=N/NC(=S)NC2CCCCC2)cc1 | > 10 µM (inactive)
67 | CCCCS(=O)(=O)/C=C\C=C/S(=O)(=O)CCCC | 2.68 µM
68 | O=C(CCl)Nc1ccc(Sc2ccc(NC(=O)CCl)cc2)cc1 | 4.37 µM
69 | CCN1C/C(=C/c2ccc(OC)c(O)c2)C(=O)/C(=C/c2ccc(OC)c(O)c2)C1 | inactive
70 | CCCCCCn1c(CN2CCN(Cc3ccccc3)CC2)nc2c1c(=O)n(C)c(=O)n2C | > 10 µM (inactive)
71 | CC(=O)C(C(C)=O)c1c(Cl)c(O)c(O)c2c(C(=O)c3ccccc3)coc12 | inactive
72 | O=C(N/N=C/c1cccs1)c1cccc(NC(=O)c2ccc(Cl)cc2)c1 | inactive
73 | CC1=C/C(=N\OS(=O)(=O)c2ccccc2)C=CC1=O | 2.9 µM
74 | CCN(CC)S(=O)(=O)c1cccc(NC(=O)Nc2cccc(C(F)(F)F)c2)c1 | inactive
75 | CCCCCCOC(=O)c1ccccc1N | > 10 µM (inactive)
76 | Nc1ccc2oc(-c3cc(Br)ccc3Cl)nc2c1 | 0.39 µM
77 | O=C(OCn1ncc(Cl)c(Cl)c1=O)c1cccc(C(F)(F)F)c1 | inactive
78 | O=[N+]([O-])c1ccc(-c2nc(C(Cl)Cl)c3ccccc3n2)cc1 | 1.34 µM

Row | Structure (SMILES) | IC50
79 | Cc1ccc(C)c(OCc2ccc(C(=O)N3N=C(C(F)F)CC3(O)C(F)F)o2)c1 (configuration not stated) | inactive
80 | N#Cc1nccnc1S(=O)(=O)c1cccs1 | inactive
81 | CC1C/C(=C/c2ccccn2)C(=O)/C(=C/c2ccccn2)C1 (configuration not stated) | 2.68 µM
82 | CCCCC(CC)C(=O)Oc1ccc(O)c(C(C)(C)C)c1 (configuration not stated) | inactive
83 | Cc1ccc(C(C)C)c(OCC(=O)N/N=C/C2CCCCC2)c1 | inactive
84 | CN(C)c1ccc(/C=C/c2ccc3c4ccccc4ccc3[n+]2-c2ccccc2)cc1 | 2.28 µM
85 | Cc1ccc2[nH]c(O)c(N=NC(=O)CCc3ccccc3)c2c1Br | inactive
86 | CCCOc1ccc(Cc2c(Cl)nc(SC)nc2NC)cc1 | > 10 µM (inactive)
87 | COc1ccc2c(C)nc(Nc3nc(C)c(C)c(=O)[nH]3)nc2c1 | < 0.16 µM
88 | COc1ccc(C(=O)c2c(C(F)(F)F)oc3c2C(=O)c2ccccc2C3=O)cc1 | inactive
89 | Cc1ccc(-c2nc(N)sc2-c2ccc(C)cc2)cc1 | > 10 µM (inactive)
90 | O=C(O)CSCC(=O)Nc1ccc(C2CCCCC2)cc1 | inactive
91 | Clc1ccc2c(N/N=C/c3ccc(Br)cc3)ccnc2c1 | > 10 µM (inactive)
92 | COc1ccc(-c2nc(NC(=O)Cn3ccc(C(F)(F)F)n3)sc2C)cc1 | > 10 µM (inactive)
93 | CCOC(=O)N=Nc1c2ccccc2c2nc3no[nH]c3nc12 | inactive
94 | O=C(O)c1cccc(COc2ccc(CO)cc2Cl)c1 | < 0.16 µM
95 | CCc1ccc2[nH]c(=O)c(C(c3nnnn3Cc3ccco3)N3CCC(C)CC3)cc2c1 (configuration not stated) | > 10 µM (inactive)
96 | CCOc1cc(S(=O)(=O)Nc2ccc(CC)cc2)ccc1Cl | inactive
97 | CCCOC(=O)c1ccc(Oc2c(-c3ccc(OCC)cc3O)n[nH]c2C)cc1 | inactive
98 | Cc1ccc(-c2[nH]ncc2/C=N/n2c(COc3ccccc3)nc3ccccc3c2=O)cc1 | inactive
99 | S=C(NCCc1ccc(Cl)cc1)Nc1ccc(Cl)cc1Cl | > 10 µM (inactive)
100 | C=C(C)C(=O)OC1(C(F)(F)F)Oc2cc(C)ccc2NC1=O (configuration not stated) | inactive
101 | Cc1ccc(NC(=O)c2nc[nH]c2C(=O)N[C@@H](C)C(=O)OC(C)(C)C)cc1 | 4.14 µM
102 | CCCOC(=O)c1ccc(Oc2cn[nH]c2-c2ccc(OC)cc2O)cc1 | 4.82 µM
